# Data reported in patent US20140187771A1, “AMORPHOUS SOLID SALTS” (Gilead Sciences, Inc., priority 2011, published 2014).
# Key:
# [1] = Glass transition temperature (Tg) by modulated differential scanning calorimetry (mDSC); format: physicochemical; details: for Tg (° C.) First heating / Tg (° C.) Second heating: mDSC, precipitated salts of Compound 1; for Tg (° C.) First heating: first heating cycle; for Tg (° C.) Second heating: second heating cycle (intrinsic Tg in dry state); for Tg (° C.): spray dried salts (from acetone)
# Method: Modulated differential scanning calorimetry (mDSC) was used to characterize salts of the invention. Solid samples were placed in hermetically sealed aluminum pan with a pinhole. Modulation amplitude of ±0.8° C. with a period of 60 sec was applied to the sample heated at 2° C./min under dried nitrogen purge using TA instruments (New Castle, Del., USA) model 1000.
# Heat-cool-heat cycles were applied to allow for moisture evaporation during first heating cycle and to erase thermal history of the sample, which allowed for the determination of the intrinsic glass transition temperature (Tg) in dry state.
# [2] = Hygroscopicity at room temperature (weight gain and visual phase transition after 24 hours at controlled RH); format: physicochemical
# Method: Hygroscopicity of salts of invention were measured by placing 20-50 mg of the sample in an uncapped scintillation vial. The vial was stored at ambient temperature in a Pyrex brand desiccator (VWR, International, CT). […] The relative humidity was confirmed using a digital hygrometer pen (VWR International, CT). An empty scintillation vial was also placed in the desiccator as a control. […] Visual observation of phase transition was also noted.
# [3] = 55% RH, room temperature, 24 hours
# [4] = 55% RH, room temperature, 24 hours, visual observation
# [5] = 75% RH, room temperature, 24 hours
# [6] = 75% RH, room temperature, 24 hours, visual observation
Compound,Tg (° C.) First heating [1],Tg (° C.) Second heating [1],"% weight gain [2, 3]","Phase transition [2, 4]","% weight gain [2, 5]","Phase transition [2, 6]",Tg (° C.) [1],"Phase transition ([2]; spray dried salts, 55% RH)","Weight gain at 55% RH RH (%) ([2]; spray dried salts, 55% RH)","Phase transition ([2]; spray dried salts, 75% RH)","Weight gain at 75% (%) ([2]; spray dried salts, 75% RH)"
CC(C)c1nc(CN(C)C(=O)N[C@@H](CCN2CCOCC2)C(=O)N[C@H](CC[C@H](Cc2ccccc2)NC(=O)OCc2cncs2)Cc2ccccc2)cs1.CCS(=O)(=O)O,−0.23 °C,37 °C,8.78%,Yes,16.2%,Yes,–,–,–,–,–
CC(C)c1nc(CN(C)C(=O)N[C@@H](CCN2CCOCC2)C(=O)N[C@H](CC[C@H](Cc2ccccc2)NC(=O)OCc2cncs2)Cc2ccccc2)cs1.CC1(C)C2CCC1(CS(=O)(=O)O)C(=O)C2 [camphorosulfonate],66 °C,66 °C,2.99%,No,5.9%,Yes,–,–,–,–,–
CC(C)c1nc(CN(C)C(=O)N[C@@H](CCN2CCOCC2)C(=O)N[C@H](CC[C@H](Cc2ccccc2)NC(=O)OCc2cncs2)Cc2ccccc2)cs1 [citrate],59 °C,60 °C,3.17%,No,6.5%,Partial,–,–,–,–,–
CC(C)c1nc(CN(C)C(=O)N[C@@H](CCN2CCOCC2)C(=O)N[C@H](CC[C@H](Cc2ccccc2)NC(=O)OCc2cncs2)Cc2ccccc2)cs1.O=C(O)c1cc(O)ccc1O [gentisate],62 °C,62 °C,2.17%,No,5.2%,No,61 °C,no,3.1%,partial,5.6%
CC(C)c1nc(CN(C)C(=O)N[C@@H](CCN2CCOCC2)C(=O)N[C@H](CC[C@H](Cc2ccccc2)NC(=O)OCc2cncs2)Cc2ccccc2)cs1.O=C(O)CNC(=O)c1ccccc1 [hippurate],31 °C,44 °C,3.37%,Partial,5.61%,Yes,–,–,–,–,–
CC(C)c1nc(CN(C)C(=O)N[C@@H](CCN2CCOCC2)C(=O)N[C@H](CC[C@H](Cc2ccccc2)NC(=O)OCc2cncs2)Cc2ccccc2)cs1.Cl [hydrochloride],34 °C,59 °C,4.32%,Partial,6.92%,Yes,35 °C,partial,7.8%,yes,9.4%
O=C(O)CCC(=O)C(=O)O [ketoglutarate],24 °C,42 °C,3.27%,Yes,5.23%,Yes,–,–,–,–,–
CC(C)c1nc(CN(C)C(=O)N[C@@H](CCN2CCOCC2)C(=O)N[C@H](CC[C@H](Cc2ccccc2)NC(=O)OCc2cncs2)Cc2ccccc2)cs1.CC(O)C(=O)O [lactate],2 °C,17 °C,–,–,5.76%,Yes,–,–,–,–,–
CC(C)c1nc(CN(C)C(=O)N[C@@H](CCN2CCOCC2)C(=O)N[C@H](CC[C@H](Cc2ccccc2)NC(=O)OCc2cncs2)Cc2ccccc2)cs1.O=C(O)CC(=O)O [malonate],14 °C,36 °C,3.43%,Yes,6.18%,Yes,–,–,–,–,–
CC(C)c1nc(CN(C)C(=O)N[C@@H](CCN2CCOCC2)C(=O)N[C@H](CC[C@H](Cc2ccccc2)NC(=O)OCc2cncs2)Cc2ccccc2)cs1.O=C(O)C(=O)O.O=C(O)C(=O)O [oxalate],34 °C,46 °C,4.38%,Partial,9.36%,Yes,–,–,–,–,–
CC(C)c1nc(CN(C)C(=O)N[C@@H](CCN2CCOCC2)C(=O)N[C@H](CC[C@H](Cc2ccccc2)NC(=O)OCc2cncs2)Cc2ccccc2)cs1.O=P(O)(O)O [phosphate],66 °C,69 °C,4.52%,No,7.9%,Partial,92 °C,no,4.7%,yes,8.0%
CC(C)c1nc(CN(C)C(=O)N[C@@H](CCN2CCOCC2)C(=O)N[C@H](CC[C@H](Cc2ccccc2)NC(=O)OCc2cncs2)Cc2ccccc2)cs1.O=C1NS(=O)(=O)c2ccccc21 [saccharinate],37 °C,56 °C,1.89%,No,4.09%,Yes,36.4 °C,no,–,yes,4.0%
CC(C)c1nc(CN(C)C(=O)N[C@@H](CCN2CCOCC2)C(=O)N[C@H](CC[C@H](Cc2ccccc2)NC(=O)OCc2cncs2)Cc2ccccc2)cs1.O=C(O)CCC(=O)O [succinate],16 °C,35 °C,3.95%,Yes,6.09%,Yes,–,–,–,–,–
O=S(=O)(O)O [sulfate],71 °C,71 °C,–,Partial,–,Yes,–,–,–,–,–
CC(C)c1nc(CN(C)C(=O)NC(CCN2CCOCC2)C(=O)NC(CCC(Cc2ccccc2)NC(=O)OCc2cncs2)Cc2ccccc2)cs1.O=C(O)c1ccc2ccccc2c1O (centres unmarked) [xinafoate],49 °C,51 °C,0.29%,No,1.97%,No,42 °C,no,2.6%,no,3.3%
ascorbate,42 °C,60 °C,3.23%,No,7.56%,Yes,–,–,–,–,–
benzoate,14 °C,23 °C,1.99%,Yes,3.63%,Yes,–,–,–,–,–
dichloroacetate,–,34 °C,3.36%,Yes,7.3%,Yes,–,–,–,–,–
fumarate,37 °C,51 °C,2.11%,No,6.02%,Yes,31 °C,no,3.2%,yes,6.0%
maleate,24 °C,37 °C,4.41%,Yes,6.67%,Yes,–,–,–,–,–
tartarate,44 °C,66 °C,3.23%,No,7.6%,Partial,67 °C,no,5.8%,yes,6.3%
tosylate,32 °C,46 °C,3.11%,Partial,6.5%,Yes,–,–,–,–,–
